Reference: ChEMBL document CHEMBL1134322, “A novel approach for the development of selective Cdk4 inhibitors: library design based on locations of Cdk4 specific amino acid residues” (J Med Chem, 2001)

Legend:
[1] = Inhibition of human recombinant cyclin D2-CDK4
[2] = biological target: Cyclin-dependent kinase 2 and 4 (CDK2 and CDK4) (Homo sapiens) (UniProt P11802+P24941); assay: Selectivity for CDK4 over CDK2; type: protein assay
[3] = biological target: Cyclin-dependent kinase 2/cyclin A (Homo sapiens, UniProt P24941); assay: Inhibition of human recombinant cyclin A-CDK2; type: protein-complex assay
Homo sapiens = species: Homo sapiens; assay: Selectivity for CDK4 over CDK1
[4] = biological target: Cyclin-dependent kinase 1/cyclin B (Homo sapiens, UniProt P06493); assay: Inhibition of human recombinant cyclin B-CDK1; type: protein-complex assay
[5] = biological target: Fibroblast growth factor receptor 1 (Homo sapiens, UniProt P11362); assay: Inhibition of fibroblast growth factor receptor 1
Fibroblast growth factor receptor 1, sequence (P11362 whole entry): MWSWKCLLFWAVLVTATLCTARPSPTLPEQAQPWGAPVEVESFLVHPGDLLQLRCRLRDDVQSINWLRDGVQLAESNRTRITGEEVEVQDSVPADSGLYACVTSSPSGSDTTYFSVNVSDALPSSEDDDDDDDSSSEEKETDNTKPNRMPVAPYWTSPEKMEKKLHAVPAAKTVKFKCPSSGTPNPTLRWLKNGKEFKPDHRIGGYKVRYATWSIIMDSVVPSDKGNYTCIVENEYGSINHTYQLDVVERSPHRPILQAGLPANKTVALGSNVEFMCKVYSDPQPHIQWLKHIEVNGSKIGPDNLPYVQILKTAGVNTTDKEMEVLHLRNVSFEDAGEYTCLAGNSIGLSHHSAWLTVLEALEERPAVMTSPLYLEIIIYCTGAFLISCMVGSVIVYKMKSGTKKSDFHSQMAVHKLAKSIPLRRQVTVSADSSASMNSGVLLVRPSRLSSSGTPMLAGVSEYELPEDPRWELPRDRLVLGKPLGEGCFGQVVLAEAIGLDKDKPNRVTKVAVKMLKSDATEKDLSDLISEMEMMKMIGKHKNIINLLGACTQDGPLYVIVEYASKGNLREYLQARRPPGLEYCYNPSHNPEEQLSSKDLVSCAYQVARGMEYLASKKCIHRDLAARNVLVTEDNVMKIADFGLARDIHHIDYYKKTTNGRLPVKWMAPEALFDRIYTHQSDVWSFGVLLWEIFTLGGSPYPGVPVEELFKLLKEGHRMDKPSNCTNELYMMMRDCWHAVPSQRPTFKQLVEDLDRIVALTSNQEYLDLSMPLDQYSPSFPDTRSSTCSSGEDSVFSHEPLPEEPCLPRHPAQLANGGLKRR

[6] = biological target: Platelet-derived growth factor receptor beta (Homo sapiens, UniProt P09619); assay: Inhibition of PDGFRbeta tyrosine kinase.
[7] = biological target: RAC-alpha serine/threonine-protein kinase (Homo sapiens, UniProt P31749); assay: Inhibition of PKBalpha (Akt1) ser/thr kinase.
RAC-alpha serine/threonine-protein kinase, sequence (P31749 whole entry): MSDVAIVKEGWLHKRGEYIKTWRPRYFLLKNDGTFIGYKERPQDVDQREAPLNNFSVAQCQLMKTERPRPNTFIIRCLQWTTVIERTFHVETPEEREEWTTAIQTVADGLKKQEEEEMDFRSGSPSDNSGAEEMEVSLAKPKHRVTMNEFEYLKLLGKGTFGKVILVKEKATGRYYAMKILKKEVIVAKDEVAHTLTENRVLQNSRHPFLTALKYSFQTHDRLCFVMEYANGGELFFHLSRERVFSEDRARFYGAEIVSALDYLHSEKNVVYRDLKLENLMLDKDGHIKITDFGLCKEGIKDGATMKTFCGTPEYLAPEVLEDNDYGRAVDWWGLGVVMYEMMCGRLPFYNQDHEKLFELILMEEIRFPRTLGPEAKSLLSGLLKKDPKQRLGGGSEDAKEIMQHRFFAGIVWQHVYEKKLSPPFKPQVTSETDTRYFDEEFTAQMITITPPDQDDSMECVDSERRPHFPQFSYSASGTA

CDK6/cyclin D1 = CDK6/cyclin D1 (Homo sapiens, UniProt Q00534); assay: Inhibition of cyclin D1-CDK6 ser/thr kinase.; type: protein-complex assay
CDK6/cyclin D1, sequence (P24385 whole entry): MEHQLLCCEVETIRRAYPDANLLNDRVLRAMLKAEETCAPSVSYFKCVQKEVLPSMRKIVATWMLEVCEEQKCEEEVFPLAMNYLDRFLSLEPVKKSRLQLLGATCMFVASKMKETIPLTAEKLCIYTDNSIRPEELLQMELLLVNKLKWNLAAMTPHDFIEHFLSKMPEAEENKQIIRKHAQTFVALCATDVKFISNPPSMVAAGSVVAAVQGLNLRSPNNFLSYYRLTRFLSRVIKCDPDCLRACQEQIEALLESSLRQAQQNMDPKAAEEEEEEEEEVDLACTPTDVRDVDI
CDK6/cyclin D1, sequence (Q00534 whole entry): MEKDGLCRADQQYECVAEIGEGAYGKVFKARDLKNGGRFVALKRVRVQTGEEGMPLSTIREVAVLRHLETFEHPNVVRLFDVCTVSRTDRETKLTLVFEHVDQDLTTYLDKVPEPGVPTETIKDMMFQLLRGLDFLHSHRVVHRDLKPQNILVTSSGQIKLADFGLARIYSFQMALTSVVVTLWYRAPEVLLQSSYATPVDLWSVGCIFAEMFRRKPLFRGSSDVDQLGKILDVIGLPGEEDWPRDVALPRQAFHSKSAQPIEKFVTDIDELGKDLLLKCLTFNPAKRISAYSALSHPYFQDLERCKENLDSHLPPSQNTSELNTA

[8] = biological target: T1, Tyrosine-protein kinase ZAP-70 (Homo sapiens, UniProt P43403); assay: Inhibition of Zap70 tyrosine kinase.
T1 sequence (P43403 whole entry): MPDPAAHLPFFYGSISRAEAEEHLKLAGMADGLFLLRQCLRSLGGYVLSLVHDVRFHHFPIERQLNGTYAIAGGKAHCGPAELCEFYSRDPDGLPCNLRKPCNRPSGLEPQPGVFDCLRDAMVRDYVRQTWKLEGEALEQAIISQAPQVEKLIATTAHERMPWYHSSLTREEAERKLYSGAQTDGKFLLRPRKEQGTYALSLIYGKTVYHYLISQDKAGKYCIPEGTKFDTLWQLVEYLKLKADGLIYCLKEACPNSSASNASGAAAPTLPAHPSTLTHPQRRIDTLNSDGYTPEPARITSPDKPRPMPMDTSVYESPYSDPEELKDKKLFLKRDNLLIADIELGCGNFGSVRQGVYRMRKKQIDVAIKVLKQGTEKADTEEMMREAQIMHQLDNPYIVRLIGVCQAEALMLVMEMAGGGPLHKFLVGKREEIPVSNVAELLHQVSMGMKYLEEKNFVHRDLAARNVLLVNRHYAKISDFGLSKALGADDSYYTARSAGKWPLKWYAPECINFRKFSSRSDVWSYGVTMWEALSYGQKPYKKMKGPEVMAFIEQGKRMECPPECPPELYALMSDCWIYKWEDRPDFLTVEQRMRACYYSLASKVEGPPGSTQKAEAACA

[9] = biological target: Dual specificity mitogen-activated protein kinase kinase 1 (Homo sapiens, UniProt Q02750); assay: Inhibition of mitogen activated protein kinase kinase 1
Dual specificity mitogen-activated protein kinase kinase 1, sequence (Q02750 whole entry): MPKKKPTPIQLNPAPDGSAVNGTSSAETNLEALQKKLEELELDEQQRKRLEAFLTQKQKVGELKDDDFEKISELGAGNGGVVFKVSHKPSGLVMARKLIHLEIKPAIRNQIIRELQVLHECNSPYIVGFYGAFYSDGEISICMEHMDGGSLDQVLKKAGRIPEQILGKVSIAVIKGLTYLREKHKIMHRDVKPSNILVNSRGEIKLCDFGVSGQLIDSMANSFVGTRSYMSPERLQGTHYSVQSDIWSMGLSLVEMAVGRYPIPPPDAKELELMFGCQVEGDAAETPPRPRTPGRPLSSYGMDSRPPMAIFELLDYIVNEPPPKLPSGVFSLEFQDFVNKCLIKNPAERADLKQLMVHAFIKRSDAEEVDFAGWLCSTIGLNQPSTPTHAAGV

[10] = biological target: cAMP-dependent protein kinase (PKA) (Homo sapiens, UniProt P22694+P17612+P22612); assay: Inhibition of PKA ser/thr kinase.; type: protein assay
[11] = Inhibition of cyclin D2-CDK4 ser/thr kinase.; design: species or system Homo sapiens
CaM kinase II = CaM kinase II (Homo sapiens, UniProt Q13557+Q13555+Q13554+Q9UQM7); assay: Inhibition of calcium/calmodulin-dependent protein kinase type II; type: protein assay
[12] = biological target: Mitogen-activated protein kinase 3 (Homo sapiens, UniProt P27361); assay: Inhibition of ERK1 ser/thr kinase.
Mitogen-activated protein kinase 3, sequence (P27361 whole entry): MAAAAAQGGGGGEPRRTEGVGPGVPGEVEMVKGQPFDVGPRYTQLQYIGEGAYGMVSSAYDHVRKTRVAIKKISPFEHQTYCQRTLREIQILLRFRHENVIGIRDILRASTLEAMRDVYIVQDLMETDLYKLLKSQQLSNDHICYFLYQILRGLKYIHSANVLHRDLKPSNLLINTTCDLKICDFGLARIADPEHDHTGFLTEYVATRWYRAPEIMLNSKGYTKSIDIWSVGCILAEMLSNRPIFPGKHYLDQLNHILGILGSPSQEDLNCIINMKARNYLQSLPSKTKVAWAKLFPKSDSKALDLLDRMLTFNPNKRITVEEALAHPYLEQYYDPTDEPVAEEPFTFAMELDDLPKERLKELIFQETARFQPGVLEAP

[13] = biological target: Vascular endothelial growth factor receptor 1 (Homo sapiens, UniProt P17948); assay: Inhibition of Flt-1 tyrosine kinase.
Vascular endothelial growth factor receptor 1, sequence (P17948 whole entry): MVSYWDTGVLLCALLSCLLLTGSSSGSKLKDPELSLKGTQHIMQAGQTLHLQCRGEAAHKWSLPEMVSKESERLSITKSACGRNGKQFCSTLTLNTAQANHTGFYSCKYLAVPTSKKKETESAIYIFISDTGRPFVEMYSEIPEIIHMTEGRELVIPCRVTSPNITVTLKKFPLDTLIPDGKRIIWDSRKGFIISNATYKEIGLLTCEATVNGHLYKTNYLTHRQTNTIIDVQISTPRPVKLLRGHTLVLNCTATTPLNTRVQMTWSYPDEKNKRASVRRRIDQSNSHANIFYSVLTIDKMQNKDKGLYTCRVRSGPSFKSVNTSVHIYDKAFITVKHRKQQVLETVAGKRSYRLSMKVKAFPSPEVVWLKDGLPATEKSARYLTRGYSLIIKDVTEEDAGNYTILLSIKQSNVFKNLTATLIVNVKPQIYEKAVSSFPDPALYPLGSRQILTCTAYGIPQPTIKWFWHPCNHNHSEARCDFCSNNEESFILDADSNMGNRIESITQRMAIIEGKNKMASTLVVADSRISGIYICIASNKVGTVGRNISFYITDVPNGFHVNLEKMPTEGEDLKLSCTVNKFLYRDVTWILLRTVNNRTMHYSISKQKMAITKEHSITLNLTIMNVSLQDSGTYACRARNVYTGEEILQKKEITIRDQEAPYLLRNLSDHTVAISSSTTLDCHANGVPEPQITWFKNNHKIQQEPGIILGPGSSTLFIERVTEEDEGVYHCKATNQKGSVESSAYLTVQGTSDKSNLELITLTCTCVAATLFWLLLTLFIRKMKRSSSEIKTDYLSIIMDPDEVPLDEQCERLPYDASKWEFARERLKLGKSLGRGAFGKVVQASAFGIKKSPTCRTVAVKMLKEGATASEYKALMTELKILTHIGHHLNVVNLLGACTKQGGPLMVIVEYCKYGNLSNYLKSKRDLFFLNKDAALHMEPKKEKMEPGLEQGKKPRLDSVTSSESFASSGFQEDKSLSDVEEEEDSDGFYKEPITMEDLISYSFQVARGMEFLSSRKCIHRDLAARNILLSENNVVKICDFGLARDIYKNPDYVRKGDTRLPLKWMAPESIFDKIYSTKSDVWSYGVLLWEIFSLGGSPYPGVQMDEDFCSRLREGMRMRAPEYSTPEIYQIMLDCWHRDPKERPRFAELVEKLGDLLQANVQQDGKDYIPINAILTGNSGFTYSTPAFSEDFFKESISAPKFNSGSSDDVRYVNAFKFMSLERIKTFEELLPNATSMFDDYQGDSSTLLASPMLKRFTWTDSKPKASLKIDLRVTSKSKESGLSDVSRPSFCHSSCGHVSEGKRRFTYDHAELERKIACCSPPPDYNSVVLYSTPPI

Protein kinase C (PKC) = assay: Inhibition of PKC ser/thr kinase.; type: protein assay, Homo sapiens
[14] = biological target: Proto-oncogene tyrosine-protein kinase Src (Homo sapiens, UniProt P12931); assay: Inhibition of Src tyrosine kinase.
Proto-oncogene tyrosine-protein kinase Src, sequence (P12931 2-536 limits assumed): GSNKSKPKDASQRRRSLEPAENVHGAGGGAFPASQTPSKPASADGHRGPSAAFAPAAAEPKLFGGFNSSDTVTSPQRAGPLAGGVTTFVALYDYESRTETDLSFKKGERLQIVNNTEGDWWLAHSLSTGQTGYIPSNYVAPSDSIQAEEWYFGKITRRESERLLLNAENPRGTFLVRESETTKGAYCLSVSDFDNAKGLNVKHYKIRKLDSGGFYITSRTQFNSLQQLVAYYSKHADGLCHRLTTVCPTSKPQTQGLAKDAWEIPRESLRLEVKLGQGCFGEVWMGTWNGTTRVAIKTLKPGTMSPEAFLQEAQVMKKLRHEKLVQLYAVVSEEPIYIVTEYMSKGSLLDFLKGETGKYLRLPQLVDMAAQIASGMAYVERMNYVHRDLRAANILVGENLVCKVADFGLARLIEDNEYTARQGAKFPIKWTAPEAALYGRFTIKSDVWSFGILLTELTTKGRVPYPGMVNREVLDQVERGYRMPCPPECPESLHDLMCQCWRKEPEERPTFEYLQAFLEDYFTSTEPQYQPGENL

[15] = biological target: Tyrosine-protein kinase Lck (Homo sapiens, UniProt P06239); assay: Inhibition of Lck tyrosine kinase.
[16] = biological target: Mitogen-activated protein kinase 14 (Homo sapiens, UniProt Q16539); assay: Inhibition of p38-alpha ser/thr kinase.
Mitogen-activated protein kinase 14, sequence (Q16539 whole entry): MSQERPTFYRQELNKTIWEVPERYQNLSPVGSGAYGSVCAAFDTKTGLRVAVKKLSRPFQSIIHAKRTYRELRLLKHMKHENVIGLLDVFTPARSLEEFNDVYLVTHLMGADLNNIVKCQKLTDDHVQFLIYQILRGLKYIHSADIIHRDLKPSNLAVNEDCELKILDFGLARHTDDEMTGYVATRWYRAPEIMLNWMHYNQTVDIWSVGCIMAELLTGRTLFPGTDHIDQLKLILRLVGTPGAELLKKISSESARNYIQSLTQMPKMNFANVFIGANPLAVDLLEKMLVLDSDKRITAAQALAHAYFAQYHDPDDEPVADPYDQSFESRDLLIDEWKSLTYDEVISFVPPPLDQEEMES

Row | IC50 [1] | Selectivity [2] | IC50 [3] | further results | Compound
1 | 0.065 µM | 150 | – | – | O=C(Nc1cc(CNC2CCCC2)[nH]n1)Nc1cccc2c1C1CCCN1C2=O (stereo unspecified)
2 | 0.029 µM | – | – | – | O=C(Nc1cc[nH]n1)Nc1cccc2c1[C@@H]1CCCN1C2=O
3 | 0.056 µM | 180 | 9.8 µM | – | CC(C)(C)NCc1cc(NC(=O)Nc2cccc3c2C2CCCN2C3=O)[nH]n1 (stereo unspecified)
4 | 0.72 µM | 27 | 20 µM | – | O=C(Nc1cc(CNC2CCCCC2)[nH]n1)Nc1cccc2c1C1CCCN1C2=O (stereo unspecified)
5 | 0.021 µM | – | – | – | O=C(Nc1cc[nH]n1)Nc1cccc2c1[C@H]1CCCN1C2=O
6 | 0.16 µM | 75 | 12 µM | – | CCCNCc1cc(NC(=O)Nc2cccc3c2C2CCCN2C3=O)[nH]n1 (stereo unspecified)
7 | 0.21 µM | 120 | – | Selectivity (Homo sapiens): 130 | O=C(Nc1cc([C@@H]2CCCN2)[nH]n1)Nc1cccc2c1[C@@H]1CCCN1C2=O
8 | 0.22 µM | 110 | 25 µM | IC50 [4]: 31 µM; Selectivity (Homo sapiens): 140 | O=C(Nc1cc([C@@H]2CCCN2)[nH]n1)Nc1cccc2c1[C@H]1CCCN1C2=O
9 | 0.13 µM | 130 | 17 µM | – | CC(C)NCc1cc(NC(=O)Nc2cccc3c2C2CCCN2C3=O)[nH]n1 (stereo unspecified)
10 | – | – | 9.7 µM | – | O=C(Nc1cc(CNC2CCCC2)n[nH]1)Nc1cccc2c1C1CCCN1C2=O (stereo unspecified)
11 | – | – | – | IC50 [5]: 6.7 µM; IC50 [6]: 5 µM; IC50 [7]: > 10 µM; IC50 (CDK6/cyclin D1): 0.071 µM; IC50 [8]: > 10 µM; IC50 [9]: > 10 µM; IC50 [10]: > 20 µM; IC50 [11]: 0.042 µM; IC50 (CaM kinase II): > 10 µM; IC50 [12]: > 10 µM; IC50 [13]: 2.8 µM; IC50 (Protein kinase C (PKC)): > 20 µM; IC50 [14]: > 5 µM; IC50 [15]: 2.3 µM; IC50 [16]: > 10 µM | O=C(Nc1ccccn1)Nc1cccc2c1[C@H]1CCCN1C2=O
12 | 0.47 µM | 16 | 7.5 µM | – | O=C(Nc1cc(CN2CCCC2)[nH]n1)Nc1cccc2c1C1CCCN1C2=O (stereo unspecified)
13 | 0.29 µM | 48 | 14 µM | – | CNCc1cc(NC(=O)Nc2cccc3c2C2CCCN2C3=O)[nH]n1 (stereo unspecified)
14 | 0.25 µM | 48 | 12 µM | – | O=C(Nc1cc(CN2CCCCC2)[nH]n1)Nc1cccc2c1C1CCCN1C2=O (stereo unspecified)
15 | – | – | 25 µM | IC50 [4]: 28 µM | O=C(Nc1cc([C@@H]2CCCN2)n[nH]1)Nc1cccc2c1[C@@H]1CCCN1C2=O
